Measured values from ChEMBL document CHEMBL1158525, “New heteroaryl nitrones with spin trap properties: Identification of a 4-furoxanyl derivative with excellent properties to be used in biological systems” (Bioorg Med Chem, 2010).
The source made the active and inactive calls.

Experiments:
Type in all cases: functional
Conditions in all cases: Microsome
Trypanosoma cruzi [1] = experiment: Antioxidant activity in Trypanosoma cruzi microsomes assessed as inhibition of NF-induced free radicals generation by EPR-based spin trap technique
Trypanosoma cruzi [2] = experiment: Antioxidant activity in Trypanosoma cruzi microsomes assessed as inhibition of PtCl2(NF)-induced free radicals generation by EPR-based spin trap technique
Trypanosoma cruzi [3] = experiment: Antioxidant activity in Trypanosoma cruzi microsomes assessed as inhibition of TBfx1-induced free radicals generation by EPR-based spin trap technique
Trypanosoma cruzi [4] = experiment: Antioxidant activity in Trypanosoma cruzi microsomes assessed as inhibition of TBfx2-induced free radicals generation by EPR-based spin trap technique

Measured: Activity

Cc1c(/C=[N+](\[O-])C(C)(C)C)no[n+]1[O-]
active: all assays above
